system: human primary T-cells, IL-2 stimulated proliferation (JAK-1 and JAK-3 dependent; reported as JAK3 activity); test: Human primary T-cell proliferation stimulated by IL-2 (Example 3); format: cell-based; conditions: tested under conditions described in Example 3 (IL-2 stimulated human primary T-cell proliferation); read-out: ability to inhibit JAK3 activity, IC50 range (Table V)
Method in brief: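 Peripheral-blood human T-cells pre-activated via TCR/CD28, IL-2-starved overnight, then cultured 72 h at 37 °C with compound in Yssel's medium containing IL-2 (80 U/mL in cell suspension). Proliferation read as viable-cell ATP by CellTiter-Glo luminescence; reduction versus control taken as JAK pathway inhibition.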

How did the IC50 turn out when `Cc1cnc(Nc2ccc(-c3ccncc3)c(Cl)c2)nc1Nc1ccc2oc(=O)[nH]c2c1` [Compound I-329, N2-[3-chloro-4-(pyridin-4-yl)]phenyl 5-methyl-N4-(2-oxo-2,3-dihydro-1,3-benzoxazol-5-yl)-2,4-pyrimidinediamine] was run?
The IC50 was 500 to 5000 nM.

How did the IC50 turn out when `Cc1cnc(Nc2ccc(-c3ccncc3)c(C(F)(F)F)c2)nc1Nc1ccc2oc(=O)[nH]c2c1` [Compound I-330, 5-methyl-N4-(2-oxo-2,3-dihydro-1,3-benzoxazol-5-yl)-N2-[4-(pyridin-4-yl)-3-trifluoromethyl]phenyl-2,4-pyrimidinediamine] was run?
The IC50 was 5000 to 10000 nM.

For `Cc1cnc(Nc2ccc(N3CCN(C)CC3)c(CO)c2)nc1Nc1ccc2oc(=O)[nH]c2c1` [Compound I-331, N2-[3-hydroxymethyl-4-(4-methylpiperazino)]phenyl-5-methyl-N4-(2-oxo-2,3-dihydro-1,3-benzoxazol-5-yl)-2,4-pyrimidinediamine], which IC50 is on record?
Its IC50 is < 500 nM.

How did the IC50 turn out when `Cc1cnc(Nc2ccc(N3CCNCC3)cc2)nc1Nc1ccc2oc(=O)[nH]c2c1` [Compound I-332, 5-methyl-N4-(2-oxo-2,3-dihydro-1,3-benzoxazol-5-yl)-N2-(4-piperazino)phenyl-2,4-pyrimidinediamine] was run?
Its IC50 is < 500 nM.

`CCNC(=O)N1CCN(c2ccc(Nc3ncc(C)c(Nc4ccc5oc(=O)[nH]c5c4)n3)cc2)CC1` [Compound I-333, N2-[4-(4-ethylaminocarbonyl)piperazino]phenyl-5-methyl-N4-(2-oxo-2,3-dihydro-1,3-benzoxazol-5-yl)-2,4-pyrimidinediamine] was tested. Which IC50 did it give?
Its IC50 is < 500 nM.

With `Cc1cnc(Nc2ccc(OC(C)(C)C#N)cc2)nc1Nc1ccc2oc(=O)[nH]c2c1` [Compound I-334, N2-[4-(1-cyano-1-methyl)ethoxy]phenyl-5-methyl-N4-(2-oxo-2,3-dihydro-1,3-benzoxazol-5-yl)-2,4-pyrimidinediamine] as the compound, how does the IC50 read?
Its IC50 is < 500 nM.

How did the IC50 turn out when `Cc1cnc(Nc2cccc(OC(C)(C)C(N)=O)c2)nc1Nc1ccc2oc(=O)[nH]c2c1` [Compound I-335, N2-[3-(1-aminocarbonyl-1-methyl)ethoxy]phenyl-5-methyl-N4-(2-oxo-2,3-dihydro-1,3-benzoxazol-5-yl)-2,4-pyrimidinediamine] was run?
The IC50 was < 500 nM.

How did the IC50 turn out when `COC(=O)c1ccc(Nc2ncc(C)c(Nc3ccc4oc(=O)[nH]c4c3)n2)cc1OC` [Compound I-336, N2-(3-methoxy-4-methoxycarbonyl)phenyl-5-methyl-N4-(2-oxo-2,3-dihydro-1,3-benzoxazol-5-yl)-2,4-pyrimidinediamine] was run?
Its IC50 is < 500 nM.

Which IC50 does the source give for `COc1cccc(Nc2ncc(C)c(Nc3ccc4oc(=O)[nH]c4c3)n2)c1` [Compound I-337, N2-(3-methoxy)phenyl-5-methyl-N4-(2-oxo-2,3-dihydro-1,3-benzoxazol-5-yl)-2,4-pyrimidinediamine] here?
Its IC50 is < 500 nM.

With `Cc1cnc(Nc2ccc(N3CCOCC3)cc2)nc1Nc1ccc2oc(=O)[nH]c2c1` [Compound I-338, 5-methyl-N2-(4-morpholino)phenyl-N4-(2-oxo-2,3-dihydro-1,3-benzoxazol-5-yl)-2,4-pyrimidinediamine] as the compound, how does the IC50 read?
The IC50 was < 500 nM.

Which IC50 does the source give for `Cc1cnc(Nc2ccc(N3CCSCC3)c(C#N)c2)nc1Nc1ccc2oc(=O)[nH]c2c1` [Compound I-339, N2-(3-cyano-4-thiomorpholino)phenyl-5-methyl-N4-(2-oxo-2,3-dihydro-1,3-benzoxazol-5-yl)-2,4-pyrimidinediamine] here?
Its IC50 is < 500 nM.

For `COc1cc(Nc2ncc(C)c(Nc3ccc4oc(=O)[nH]c4c3)n2)ccc1N1CCN(C)CC1` [Compound I-340, N2-[3-methoxy-4-(4-methylpiperazino)]phenyl-5-methyl-N4-(2-oxo-2,3-dihydro-1,3-benzoxazol-5-yl)-2,4-pyrimidinediamine], which IC50 is on record?
Its IC50 is < 500 nM.

For `Cc1cnc(Nc2ccc(N3CCN(C)CC3)c(C#N)c2)nc1Nc1ccc2oc(=O)[nH]c2c1` [Compound I-341, N2-[3-cyano-4-(4-methylpiperazino)]phenyl-5-methyl-N4-(2-oxo-2,3-dihydro-1,3-benzoxazol-5-yl)-2,4-pyrimidinediamine], which IC50 is on record?
The IC50 was < 500 nM.

How did the IC50 turn out when `Cc1cnc(Nc2cccc(OC(C)(C)C#N)c2)nc1Nc1ccc2oc(=O)[nH]c2c1` [Compound I-342, N2-[3-(1-cyano-1-methyl)ethoxy]phenyl-5-methyl-N4-(2-oxo-2,3-dihydro-1,3-benzoxazol-5-yl)-2,4-pyrimidinediamine] was run?
Its IC50 is < 500 nM.

`CC(=O)N1CCN(c2ccc(Nc3ncc(C)c(Nc4ccc5oc(=O)[nH]c5c4)n3)cc2)CC1` [Compound I-343, N2-[4-(4-acetyl)piperazino]phenyl-5-methyl-N4-(2-oxo-2,3-dihydro-1,3-benzoxazol-5-yl)-2,4-pyrimidinediamine] was tested. Which IC50 did it give?
Its IC50 is < 500 nM.

With `CCOC(=O)N1CCN(c2ccc(Nc3ncc(C)c(Nc4ccc5oc(=O)[nH]c5c4)n3)cc2)CC1` [Compound I-344, N2-[4-(4-ethoxycarbonyl)piperazino]phenyl-5-methyl-N4-(2-oxo-2,3-dihydro-1,3-benzoxazol-5-yl)-2,4-pyrimidinediamine] as the compound, how does the IC50 read?
The IC50 was < 500 nM.

With `CC(=O)N1CCN(c2cccc(Nc3ncc(C)c(Nc4ccc5oc(=O)[nH]c5c4)n3)c2)CC1` [Compound I-345, N2-[3-(4-acetyl)piperazino]phenyl-5-methyl-N4-(2-oxo-2,3-dihydro-1,3-benzoxazol-5-yl)-2,4-pyrimidinediamine] as the compound, how does the IC50 read?
Its IC50 is < 500 nM.

With `CCOC(=O)N1CCN(c2cccc(Nc3ncc(C)c(Nc4ccc5oc(=O)[nH]c5c4)n3)c2)CC1` [Compound I-346, N2-[3-(4-ethoxycarbonyl)piperazino]phenyl-5-methyl-N4-(2-oxo-2,3-dihydro-1,3-benzoxazol-5-yl)-2,4-pyrimidinediamine] as the compound, how does the IC50 read?
The IC50 was < 500 nM.

Which IC50 does the source give for `Cc1cnc(Nc2ccc(OC(F)F)c(F)c2)nc1Nc1ccc2oc(=O)[nH]c2c1` [Compound I-347, N2-(4-difluoromethoxy-3-fluoro)phenyl-5-methyl-N4-(2-oxo-2,3-dihydro-1,3-benzoxazol-5-yl)-2,4-pyrimidinediamine] here?
The IC50 was < 500 nM.

For `Cc1cnc(Nc2cc(Cl)c(OC(F)F)c(Cl)c2)nc1Nc1ccc2oc(=O)[nH]c2c1` [Compound I-348, N2-(3,5-dichloro-4-difluoromethoxy)phenyl-5-methyl-N4-(2-oxo-2,3-dihydro-1,3-benzoxazol-5-yl)-2,4-pyrimidinediamine], which IC50 is on record?
Its IC50 is < 500 nM.

`COc1ccc(Nc2ncc(C)c(Nc3ccc4oc(=O)[nH]c4c3)n2)cc1F` [Compound I-350, N2-(3-fluoro-4-methoxy)phenyl-5-methyl-N4-(2-oxo-2,3-dihydro-1,3-benzoxazol-5-yl)-2,4-pyrimidinediamine] was tested. Which IC50 did it give?
Its IC50 is < 500 nM.

With `COc1cc(Nc2ncc(C)c(Nc3ccc4oc(=O)[nH]c4c3)n2)ccc1C` [Compound I-351, N2-(3-methoxy-4-methyl)phenyl-5-methyl-N4-(2-oxo-2,3-dihydro-1,3-benzoxazol-5-yl)-2,4-pyrimidinediamine] as the compound, how does the IC50 read?
The IC50 was < 500 nM.

How did the IC50 turn out when `COc1cc(F)cc(Nc2ncc(C)c(Nc3ccc4oc(=O)[nH]c4c3)n2)c1` [Compound I-352, N2-(3-fluoro-5-methoxy)phenyl-5-methyl-N4-(2-oxo-2,3-dihydro-1,3-benzoxazol-5-yl)-2,4-pyrimidinediamine] was run?
Its IC50 is < 500 nM.

`Cc1cnc(Nc2cc(OC(F)F)cc(C(F)(F)F)c2)nc1Nc1ccc2oc(=O)[nH]c2c1` [Compound I-353, N2-(3-difluoromethoxy-5-trifluoromethyl)phenyl-5-methyl-N4-(2-oxo-2,3-dihydro-1,3-benzoxazol-5-yl)-2,4-pyrimidinediamine] was tested. Which IC50 did it give?
The IC50 was < 500 nM.

Which IC50 does the source give for `COc1cc(Nc2ncc(C)c(Nc3ccc4oc(=O)[nH]c4c3)n2)ccc1C(F)(F)F` [Compound I-354, N2-(3-methoxy-4-trifluoromethyl)phenyl-5-methyl-N4-(2-oxo-2,3-dihydro-1,3-benzoxazol-5-yl)-2,4-pyrimidinediamine] here?
Its IC50 is < 500 nM.

How did the IC50 turn out when `Cc1cnc(Nc2cc(C(C)(C)C)cc(C(C)(C)C)c2)nc1Nc1ccc2oc(=O)[nH]c2c1` [Compound I-355, N2-(3,5-di-tert-butyl)phenyl-5-methyl-N4-(2-oxo-2,3-dihydro-1,3-benzoxazol-5-yl)-2,4-pyrimidinediamine] was run?
The IC50 was 500 to 5000 nM.

With `COc1cc(Nc2ncc(C)c(Nc3ccc4oc(=O)n(COP(=O)(OC(C)(C)C)OC(C)(C)C)c4c3)n2)cc(C(F)(F)F)c1` [Compound I-356, N4-{3-[bis(1,1-dimethylethoxy)]phosphinyloxymethyl-2-oxo-2,3-dihydro-1,3-benzoxazol-5-yl}-N2-(3-methoxy-5-trifluoromethyl)phenyl-5-methyl-2,4-pyrimidinediamine] as the compound, how does the IC50 read?
The IC50 was 5000 to 10000 nM.

`COc1cc(Nc2ncc(C)c(Nc3ccc4oc(=O)n(COP(=O)(O)O)c4c3)n2)cc(C(F)(F)F)c1` [Compound I-357, N2-(3-methoxy-5-trifluoromethyl)phenyl-5-methyl-N4-[3-(phosphonooxy)methyl-2-oxo-2,3-dihydro-1,3-benzoxazol-5-yl]-2,4-pyrimidinediamine] was tested. Which IC50 did it give?
Its IC50 is 500 to 5000 nM.

With `Cc1cnc(Nc2cc(F)cc(F)c2)nc1Nc1ccc2oc(=O)[nH]c2c1` [Compound I-359, N2-(3,5-difluoro)phenyl-5-methyl-N4-(2-oxo-2,3-dihydro-1,3-benzoxazol-5-yl)-2,4-pyrimidinediamine] as the compound, how does the IC50 read?
Its IC50 is < 500 nM.

With `Cc1cnc(Nc2cc(F)cc(C(F)(F)F)c2)nc1Nc1ccc2oc(=O)[nH]c2c1` [Compound I-360, N2-(3-fluoro-5-trifluoromethyl)phenyl-5-methyl-N4-(2-oxo-2,3-dihydro-1,3-benzoxazol-5-yl)-2,4-pyrimidinediamine] as the compound, how does the IC50 read?
The IC50 was < 500 nM.

How did the IC50 turn out when `Cc1cnc(Nc2ccc(F)c(C(F)(F)F)c2)nc1Nc1ccc2oc(=O)[nH]c2c1` [Compound I-361, N2-(4-fluoro-3-trifluoromethyl)phenyl-5-methyl-N4-(2-oxo-2,3-dihydro-1,3-benzoxazol-5-yl)-2,4-pyrimidinediamine] was run?
The IC50 was < 500 nM.

With `Cc1cc(Nc2ncc(C)c(Nc3ccc4oc(=O)[nH]c4c3)n2)ccc1F` [Compound I-362, N2-(4-fluoro-3-methyl)phenyl-5-methyl-N4-(2-oxo-2,3-dihydro-1,3-benzoxazol-5-yl)-2,4-pyrimidinediamine] as the compound, how does the IC50 read?
The IC50 was < 500 nM.

Reference: patent US10005767B2, “Compositions and methods for inhibition of the JAK pathway” (Rigel Pharmaceuticals, Inc., priority 2009, dated 2018)
